ChEMBL document CHEMBL1158867, “Activity-guided isolation of constituents of Tephrosia purpurea with the potential to induce the phase II enzyme, quinone reductase” (J Nat Prod, 1997)
pIC50: −log10 of the molar value.

Assays:
[1] = Chemoprevention index, ratio of IC50 for mouse Hepa-1c1c7 cells to drug level required to double quinone reductase activity in mouse Hepa-1c1c7 cells; type: functional
[2] = Cytotoxicity against mouse Hepa-1c1c7 cells assessed as cell survival after 2 days by MTT assay; type: functional, cell-based; settings: Hepa-1c1c7, 48 h

Structure (SMILES) | Ratio [1] | pIC50 [2]
COc1cc2c(c3c1C(=O)C[C@@H](c1ccccc1)O3)[C@H]1[C@@H](O2)OC(C)(C)[C@@H]1OC(C)=O | >9 | < 4.29
COc1c(O)ccc2c1OC[C@H]1c3cc4c(cc3O[C@@H]21)OCO4 | >4.4 | < 4.20
COc1cc2c(c(O)c1C(=O)/C=C/c1ccccc1)[C@H]1[C@@H](O2)OC(C)(C)[C@@H]1OC(C)=O [TEPHROPURPURIN] | 89 | 4.87
COc1c(C(=O)/C=C(\O)c2ccccc2)ccc2occc12 [PONGAMOL] | 3.1 | 4.73
Oc1ccc2c(c1)OC[C@H]1c3cc4c(cc3O[C@@H]21)OCO4 [MAACKIAIN] | >8 | < 4.15
C[S+]([O-])CCCCN=C=S (stereo not drawn) [SULFORAPHANE] | 25 | 4.96
O=c1cc(-c2ccccc2)oc2c1ccc1occc12 [LANCEOLATIN B] | >3.3 | < 4.12
COc1ccc2c(c1)O[C@H]1c3ccc(O)cc3OC[C@@H]21 | >5.4 | < 4.13
COc1cc(-c2coc3cc(O)ccc3c2=O)cc(OC)c1O | >3.7 | < 4.20
